Experimental data reported in publication PMC6268379, “Antifungal Activity of Homoaconitate and Homoisocitrate Analogs” (Molecules, 2012).
Converted amounts (≈) assume the structure as drawn. Where two headings read alike, the source gives them in different places.

Experiments:
[1] = molecular target: recombinant homoisocitrate dehydrogenase (HIcDH) (Candida albicans, UniProt Q5A9D9); assay: Homoisocitrate dehydrogenase activity, NADH absorption at 340 nm; format: biochemical; conditions: for effect on enzyme activity (homoisocitrate dehydrogenase): ester derivatives, concentrations up to 10 mM; for IC50: recombinant C. albicans His-tagged HIcDH, inhibitor 0–10 mM, mean of three determinations ± SD
Description: (§1) Recombinant C. albicans homoaconitase (HA) and homoisocitrate dehydrogenase (HIcDH) containing oligoHis N-terminal tags were constructed and purified to near homogeneity as described earlier.
Reaction catalyzed by homoisocitrate dehydrogenase (HIcDH) was monitored by measuring the NADH absorption at 340 nm. The standard assay mixture contained 10 mM KCl, 5.0 mM MgCl2, 5 mM NAD^+ and 0.1 mM (2R,3S)-homoisocitrate in 50 mM Hepes-NaOH (pH 7.8) buffer. The reaction mixture with all required components except for the enzyme was preincubated for 3 min and the reaction was started by an addition of the recombinant His6-HIcDH (50 μg). The formation of NADH was measured for 30 s at 20 °C to determine initial reaction velocity. The initial rates were determined using a linear portion of the reaction progress curve.
(§2) The effects of novel compounds on the HA and HIcDH activity was determined by measuring the enzyme activity in standard assay mixtures containing various concentration of an inhibitor (0–10 mM). Inhibitory potential was expressed as IC50 values, i.e., concentrations causing 50% inhibition of enzyme activity in relation to control. All determinations were performed in triplicate.

[2] = test system: Saccharomyces cerevisiae ATCC 9763; assay: Antifungal in vitro activity, microplate serial dilution (modified CLSI M27-A3); format: cell-based
[3] = test system: Candida krusei DSM 6128; assay: as above; format: cell-based; conditions: Pichia kudriavzevii
[4] = test system: Candida lusitaniae DSM 70102; assay: as above; format: cell-based; conditions: Clavispora lusitaniae
[5] = test system: Candida albicans ATCC 10231; assay: as above; format: cell-based
[6] = test system: Candida tropicalis KKP 334; assay: as above; format: cell-based
[7] = test system: Candida glabrata DSM 11226; assay: as above; format: cell-based; conditions: Nakaseomyces glabratus
[8] = test system: six yeast strains; assay: In vitro antifungal activity against six yeast strains; format: cell-based; conditions: for MIC values, range over susceptible yeast strains: range stated in text over the tested yeast strains; for antifungal activity: salts, six yeast strains, stated in words
[9] = molecular target: T1, recombinant homoaconitase (HA) (Candida albicans, UniProt Q5A644); assay: Homoaconitase activity, coupled reaction with HIcDH, NADH at 340 nm; format: biochemical; conditions: for effect on enzyme activity (homoaconitase): ester derivatives, concentrations up to 10 mM
T1 construct: made in house
T1 sequence (Q5A644 1-684): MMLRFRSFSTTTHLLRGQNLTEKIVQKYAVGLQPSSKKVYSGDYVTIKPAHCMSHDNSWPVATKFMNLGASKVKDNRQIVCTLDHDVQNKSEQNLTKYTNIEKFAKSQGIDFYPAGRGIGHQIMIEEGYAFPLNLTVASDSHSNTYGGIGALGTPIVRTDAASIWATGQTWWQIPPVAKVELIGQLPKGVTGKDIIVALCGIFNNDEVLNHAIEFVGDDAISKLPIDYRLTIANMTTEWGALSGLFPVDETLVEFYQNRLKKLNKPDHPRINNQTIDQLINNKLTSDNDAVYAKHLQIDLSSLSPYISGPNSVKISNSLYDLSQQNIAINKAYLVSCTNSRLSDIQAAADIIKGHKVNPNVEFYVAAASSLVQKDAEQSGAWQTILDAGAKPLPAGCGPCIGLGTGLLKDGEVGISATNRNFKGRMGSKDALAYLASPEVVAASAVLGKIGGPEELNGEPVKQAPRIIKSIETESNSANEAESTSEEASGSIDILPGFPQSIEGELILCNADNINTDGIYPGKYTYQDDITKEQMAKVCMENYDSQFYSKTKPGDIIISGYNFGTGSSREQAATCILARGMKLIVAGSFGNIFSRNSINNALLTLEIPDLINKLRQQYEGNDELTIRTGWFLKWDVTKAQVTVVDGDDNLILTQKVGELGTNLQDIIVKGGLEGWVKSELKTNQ
Description: as §1
Activity of homoaconitase (HA) was measured by a coupled reaction with HIcDH by monitoring the reduction of NAD^+ to NADH at 340 nm. Reaction mixtures containing 50 mM Tris-HCl (pH 8.5), 50 mM KCl, 5 mM MgCl2, 20 mM dithiothreitol, 1 mM NAD^+ and 30 μg/mL of His6-HIcDH in a total volume of 0.9 mL were degassed under argon for 10 min, after which 0.05 mL of His6-HAC solution was added to a final concentration of 10 μg/mL. The reaction was initiated with addition of 0.05 mL of 50 mM (R)-homocitrate. The formation of NADH was measured for 30 s at 20 °C to determine initial reaction velocity. The initial rates were determined using a linear portion of the reaction progress curve.
as §2

[10] = ATCC9763, RPMI-1640 pH 7.0, 24 h at 37 °C, at least 80% decrease in turbidity, read-out: MIC S. cerevisiae
[11] = DSM6128, RPMI-1640 pH 7.0, 24 h at 37 °C, at least 80% decrease in turbidity, read-out: MIC C. krusei
[12] = DSM70102, RPMI-1640 pH 7.0, 24 h at 37 °C, at least 80% decrease in turbidity, read-out: MIC C. lusitaniae
[13] = ATCC10231, RPMI-1640 pH 7.0, 24 h at 37 °C, at least 80% decrease in turbidity, read-out: MIC C. albicans
[14] = KKP334, RPMI-1640 pH 7.0, 24 h at 37 °C, at least 80% decrease in turbidity, read-out: MIC C. tropicalis
[15] = DSM11226, RPMI-1640 pH 7.0, 24 h at 37 °C, at least 80% decrease in turbidity, read-out: MIC C. glabrata
[16] = ATCC9763, 24 h, pH 7, read-out: MIC S. cerevisiae
[17] = DSM6128, 24 h, pH 7, read-out: MIC C. krusei
[18] = DSM70102, 24 h, pH 7, read-out: MIC C. lusitaniae
[19] = ATCC10231, 24 h, pH 7, read-out: MIC C. albicans
[20] = KKP334, 24 h, pH 7, read-out: MIC C. tropicalis
[21] = DSM11226, 24 h, pH 7, read-out: MIC C. glabrata

Sequence of recombinant homoisocitrate dehydrogenase (HIcDH) (Q5A9D9 entry or part of it): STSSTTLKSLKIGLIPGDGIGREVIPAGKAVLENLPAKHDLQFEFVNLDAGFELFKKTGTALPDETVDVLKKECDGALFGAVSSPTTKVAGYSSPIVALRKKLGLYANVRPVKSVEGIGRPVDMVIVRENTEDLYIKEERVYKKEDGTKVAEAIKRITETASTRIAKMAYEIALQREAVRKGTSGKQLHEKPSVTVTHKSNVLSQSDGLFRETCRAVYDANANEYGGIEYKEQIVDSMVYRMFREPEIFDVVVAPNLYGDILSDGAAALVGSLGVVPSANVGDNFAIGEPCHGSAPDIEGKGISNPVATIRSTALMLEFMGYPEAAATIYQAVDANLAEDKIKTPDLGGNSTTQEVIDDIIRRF

NC(=O)c1ccc[n+]([C@@H]2O[C@H](COP(=O)([O-])OP(=O)(O)OC[C@H]3O[C@@H](n4cnc5c(N)ncnc54)[C@H](O)[C@@H]3O)[C@@H](O)[C@H]2O)c1 [NAD^+, reference compound]
Km ([1]; recombinant C. albicans HIcDH, read-out: KM of recombinant HIcDH for cofactor): 1100 µM

CCCC[C@@H](C(=O)OC)[C@H](O)C(=O)OC [Compound 5b, Dimethyl (2S,3R)-2-hydroxy-3-butylsuccinate]
MIC [2, 10]: > 512 µg/mL | MIC [3, 11]: > 512 µg/mL | MIC [4, 12]: > 512 µg/mL | MIC [5, 13]: > 512 µg/mL | MIC [6, 14]: > 512 µg/mL | MIC [7, 15]: > 512 µg/mL

COC(=O)CCC1(C(=O)OC)OC1C(=O)OC (stereo not drawn) [Compound 3, Trimethyl (1E)1,2-epoxy-butane-1,2,4-tricarboxylate]
MIC [2, 10]: > 512 µg/mL | MIC [3, 11]: > 512 µg/mL | MIC [4, 12]: 512 µg/mL (≈ 2080 µM) | MIC values, range over susceptible yeast strains [8]: 128 to 512 µg/mL | MIC [5, 13]: 256 µg/mL (≈ 1040 µM) | MIC [6, 14]: 128 µg/mL (≈ 520 µM) | effect on enzyme activity (homoisocitrate dehydrogenase) [1]: none | effect on enzyme activity (homoaconitase) [9]: none | MIC [7, 15]: 128 µg/mL (≈ 520 µM)

OC(Cn1cncn1)(Cn1cncn1)c1ccc(F)cc1F [Flu, Fluconazole, reference compound]
MIC [2, 10]: 4 µg/mL (≈ 13.1 µM) | MIC [3, 11]: 8 µg/mL (≈ 26.1 µM) | MIC [4, 12]: 4 µg/mL (≈ 13.1 µM) | MIC [5, 13]: 4 µg/mL (≈ 13.1 µM) | MIC [6, 14]: 2 µg/mL (≈ 6.53 µM) | MIC [7, 15]: 8 µg/mL (≈ 26.1 µM)

COC(=O)/C=C(\CCC(=O)OC)C(=O)OC [Compound 1a, trimethyl (1E)-but-1-ene-1,2,4-tricarboxylate]
MIC [2, 10]: 32 µg/mL (≈ 139 µM) | MIC [3, 11]: 32 µg/mL (≈ 139 µM) | MIC [4, 12]: 16 µg/mL (≈ 69.5 µM) | MIC values, range over susceptible yeast strains [8]: 16 to 32 µg/mL | MIC [5, 13]: 16 µg/mL (≈ 69.5 µM) | MIC [6, 14]: 32 µg/mL (≈ 139 µM) | effect on enzyme activity (homoisocitrate dehydrogenase) [1]: none | effect on enzyme activity (homoaconitase) [9]: none | MIC [7, 15]: 16 µg/mL (≈ 69.5 µM)

CCC[C@@H](C(=O)OC)[C@@H](F)C(=O)OC [Compound 6a, Dimethyl (2R,3S)-2-fluoro-3-propylsuccinate]
MIC [2, 10]: > 512 µg/mL | MIC [3, 11]: > 512 µg/mL | MIC [4, 12]: 512 µg/mL (≈ 2480 µM) | MIC [5, 13]: > 512 µg/mL | MIC [6, 14]: > 512 µg/mL | MIC [7, 15]: > 512 µg/mL

O=C([O-])CC[C@@H](C(=O)[O-])[C@@H](F)C(=O)[O-].[K+].[K+].[K+] [Compound 10, tripotassium (1R,2S)-1-fluorobutane-1,2,4-tricarboxylate]
MIC [2, 16]: > 512 µg/mL | MIC [3, 17]: > 512 µg/mL | MIC [4, 18]: > 512 µg/mL | antifungal activity [8]: None | MIC [5, 19]: > 512 µg/mL | MIC [6, 20]: > 512 µg/mL | IC50 [1]: 3.22 ± 0.55 mM | IC50 [9]: > 10 mM | MIC [7, 21]: > 512 µg/mL

O=C(O)CCC1(C(=O)O)OC1C(=O)O (stereo not drawn) [Compound 4, Tripotassium (1E)1,2-epoxy-butane-1,2,4-tricarboxylate]
MIC [2, 10]: > 512 µg/mL | MIC [3, 11]: > 512 µg/mL | MIC [4, 12]: > 512 µg/mL | antifungal activity [8]: None | MIC [5, 13]: > 512 µg/mL | MIC [6, 14]: > 512 µg/mL | IC50 [1]: > 10 mM | IC50 [9]: 5.76 ± 0.34 mM | MIC [7, 15]: > 512 µg/mL

CCC[C@@H](C(=O)OC)[C@H](O)C(=O)OC [Compound 5a, Dimethyl (2S,3R)-2-hydroxy-3-propylsuccinate]
MIC [2, 10]: > 512 µg/mL | MIC [3, 11]: > 512 µg/mL | MIC [4, 12]: > 512 µg/mL | MIC [5, 13]: > 512 µg/mL | MIC [6, 14]: > 512 µg/mL | MIC [7, 15]: > 512 µg/mL

C=CC[C@@H](C(=O)OC)[C@@H](F)C(=O)OC [Compound 6c, Dimethyl (2R,3S)-2-fluoro-3-allylsuccinate]
MIC [2, 10]: > 512 µg/mL | MIC [3, 11]: 512 µg/mL (≈ 2510 µM) | MIC [4, 12]: > 512 µg/mL | MIC [5, 13]: 256 µg/mL (≈ 1250 µM) | MIC [6, 14]: 256 µg/mL (≈ 1250 µM) | MIC [7, 15]: 256 µg/mL (≈ 1250 µM)

C=CC[C@@H](C(=O)OC)[C@H](O)C(=O)OC [Compound 5c, Dimethyl (2S,3R)-2-hydroxy-3-allylsuccinate]
MIC [2, 10]: > 512 µg/mL | MIC [3, 11]: > 512 µg/mL | MIC [4, 12]: > 512 µg/mL | MIC [5, 13]: > 512 µg/mL | MIC [6, 14]: > 512 µg/mL | MIC [7, 15]: > 512 µg/mL

O=C([O-])/C=C(\CCC(=O)[O-])C(=O)[O-].[K+].[K+].[K+] [Compound 2, tripotassium (1E)-but-1-ene-1,2,4-tricarboxylate]
MIC [2, 16]: > 512 µg/mL | MIC [3, 17]: > 512 µg/mL | MIC [4, 18]: > 512 µg/mL | antifungal activity [8]: None | MIC [5, 19]: > 512 µg/mL | MIC [6, 20]: > 512 µg/mL | IC50 [1]: > 10 mM | IC50 [9]: 1.58 ± 0.11 mM | MIC [7, 21]: > 512 µg/mL

C=CC[C@@H](C(=O)[O-])[C@@H](F)C(=O)[O-].[K+].[K+] [Compound 7c, Dipotassium (2R,3S)-2-fluoro-3-allylsuccinate]
MIC [2, 16]: > 512 µg/mL | MIC [3, 17]: > 512 µg/mL | MIC [4, 18]: 512 µg/mL | antifungal activity [8]: None | MIC [5, 19]: > 512 µg/mL | MIC [6, 20]: > 512 µg/mL | IC50 [1]: 6.78 ± 0.56 mM | IC50 [9]: > 10 mM | MIC [7, 21]: > 512 µg/mL

COC(=O)CC[C@@H](C(=O)OC)[C@@H](F)C(=O)OC [Compound 9, trimethyl (1R,2S)-1-fluorobutane-1,2,4-tricarboxylate]
MIC [2, 10]: > 512 µg/mL | MIC [3, 11]: 256 µg/mL (≈ 1020 µM) | MIC [4, 12]: > 512 µg/mL | MIC [5, 13]: 128 µg/mL (≈ 512 µM) | MIC [6, 14]: 64 µg/mL (≈ 256 µM) | effect on enzyme activity (homoisocitrate dehydrogenase) [1]: none | effect on enzyme activity (homoaconitase) [9]: none | MIC [7, 15]: 256 µg/mL (≈ 1020 µM)

CCCC[C@@H](C(=O)OC)[C@@H](F)C(=O)OC [Compound 6b, Dimethyl (2R,3S)-2-fluoro-3-butylsuccinate]
MIC [2, 10]: > 512 µg/mL | MIC [3, 11]: > 512 µg/mL | MIC [4, 12]: 128 µg/mL (≈ 581 µM) | MIC [5, 13]: 256 µg/mL (≈ 1160 µM) | MIC [6, 14]: 128 µg/mL (≈ 581 µM) | MIC [7, 15]: 512 µg/mL (≈ 2320 µM)
